Several values for one entry are separate records, joined by “and”; a condition that tells them apart may be missing. Equal entries are not always repeated. Where two headings read alike, the source gives them in different places.
Tests used:
[1] = T1 and T2 relaxivity measurement by spin echo MRI at varying concentrations; type: physicochemical
[2] = Density of the aqueous solutions calculated from the weight of 2 mL in a tube; type: physicochemical
[3] = as in the Examples
[4] = at 20 to 25° C., cited from earlier work
[5] = aqueous solution, spin echo, 22° C.
[6] = aqueous solution that exhibited maximum MRI contrast

## O=S(=O)([O-])[O-].[Cu+2] [Cu (CuSO4), Copper sulfate]
[1]
  r1 (T1 relaxivity): 0.63 and 0.63 mM−1 · sec^−1
[2]
  Density: 1.0 g/mL
  density of solution: about 1 g/mL

## CNC[C@H](O)[C@@H](O)[C@H](O)[C@H](O)CO.CNC[C@H](O)[C@@H](O)[C@H](O)[C@H](O)CO.O=C([O-])CN(CCN(CC(=O)[O-])CC(=O)O)CCN(CC(=O)[O-])CC(=O)O.[Gd+3] [Gd (Gd-DTPA), meglumine gadopentetate]
[1]; [5]
  r1 (T1 relaxivity): 4.2 mM⁻¹ s⁻¹
[2]; [6]
  Density: 1.0 g/mL
[2]; no matter what concentration the solution may have
  density of solution: about 1 g/mL

## O.[Na+].[Na+].[Na+].[Na+].[Na+].[Na+].[O]=[W](=[O])([O-])[O-].[O]=[W](=[O])([O-])[O-].[O]=[W](=[O])([O-])[O-].[O]=[W](=[O])=[O].[O]=[W](=[O])=[O].[O]=[W](=[O])=[O].[O]=[W](=[O])=[O].[O]=[W](=[O])=[O].[O]=[W](=[O])=[O].[O]=[W](=[O])=[O].[O]=[W](=[O])=[O].[O]=[W](=[O])=[O] [W (SPT), Sodium polytungstate]
[1]; [5]
  r1 (T1 relaxivity): 0.00036 mM⁻¹ s⁻¹
[1]; aqueous solution, spin echo, 22° C., listed as SPT
  r1 (T1 relaxivity): 0.00036 mM⁻¹ s⁻¹
[3]
  water solubility: > 1000 mg/mL
[2]; [6]
  Density: 3.0 g/mL
[4]; listed as sodium polytungstate (SPT)
  maximum density of aqueous solution: at most 3.08 g/mL
[4]
  maximum density of aqueous solution: 3.08 g/mL

Source: patent US20150173847A1, “IMAGING MARKER AND UTILIZATION THEREOF” (priority 2012, published 2015)
